The target in this assay is Trace amine-associated receptor 1 (Homo sapiens) (UniProt Q96RJ0). Nature of the assay: human TAAR1 antagonists, late-stage follow-up, cell-based, fluorescence, MedChem round 2 (AID 1117265). The conditions noted are these: TAAR1-expressing cells, antagonist mode.

By IC50 is commonly meant the concentration that gives 50% inhibition.

Active and inactive are the calls of the source. How the calls were made is not given here.

Chain of Trace amine-associated receptor 1 (Homo sapiens) (Q96RJ0 whole entry, looked up, the tested form may be a part): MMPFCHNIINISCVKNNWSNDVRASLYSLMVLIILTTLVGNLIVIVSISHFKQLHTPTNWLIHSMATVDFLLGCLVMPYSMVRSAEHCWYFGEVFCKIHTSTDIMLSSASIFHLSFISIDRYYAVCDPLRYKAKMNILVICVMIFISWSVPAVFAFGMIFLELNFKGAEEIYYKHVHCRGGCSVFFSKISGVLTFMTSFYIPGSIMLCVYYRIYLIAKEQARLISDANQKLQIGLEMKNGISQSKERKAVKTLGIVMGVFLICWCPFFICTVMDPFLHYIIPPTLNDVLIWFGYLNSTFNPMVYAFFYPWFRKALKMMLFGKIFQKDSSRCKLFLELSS

Regarding `COc1cc(C(=O)CCN2CCC(c3ccccc3)C2)cc(OC)c1OC` (configuration not stated), the IC50 is 419 nM.
Turning to `Cc1ccc(C(=O)CCN2CCC(c3ccccc3)C2)cc1` (configuration not stated), the IC50 was 672 nM.
Take `O=C(CCN1CCC(c2ccccc2)C1)c1ccccc1` (configuration not stated): the IC50 was 765 nM.
The figure for `N#Cc1c(C(F)(F)F)cc(-c2ccc(Cl)cc2)nc1SCC(=O)N1CCCCCC1` is > 29900 nM (inactive); for `N#Cc1c(C(F)(F)F)cc(-c2ccc(Cl)cc2)nc1SCC(=O)N1CCCC1` it is 1070 nM; for `N#Cc1c(C(F)(F)F)cc(-c2ccc(Cl)cc2)nc1SCC(=O)Nc1ncccn1` it is 3.74 nM.
For `CC(CN1CCCC1Cc1ccccc1)C(=O)c1ccc2c(c1)OCCO2` (configuration not stated), the IC50 is 2960 nM.

Values taken from PubChem BioAssay AID1117265 (The Scripps Research Institute Molecular Screening Center, 2014).
